Where a name gives a salt, the structure may show the parent alone. Read-outs that look alike come from different tables or passages of the source.
Biological target: T1, IRAK4 (Homo sapiens, UniProt Q9NWZ3)
T1 sequence (Q9NWZ3 1-460): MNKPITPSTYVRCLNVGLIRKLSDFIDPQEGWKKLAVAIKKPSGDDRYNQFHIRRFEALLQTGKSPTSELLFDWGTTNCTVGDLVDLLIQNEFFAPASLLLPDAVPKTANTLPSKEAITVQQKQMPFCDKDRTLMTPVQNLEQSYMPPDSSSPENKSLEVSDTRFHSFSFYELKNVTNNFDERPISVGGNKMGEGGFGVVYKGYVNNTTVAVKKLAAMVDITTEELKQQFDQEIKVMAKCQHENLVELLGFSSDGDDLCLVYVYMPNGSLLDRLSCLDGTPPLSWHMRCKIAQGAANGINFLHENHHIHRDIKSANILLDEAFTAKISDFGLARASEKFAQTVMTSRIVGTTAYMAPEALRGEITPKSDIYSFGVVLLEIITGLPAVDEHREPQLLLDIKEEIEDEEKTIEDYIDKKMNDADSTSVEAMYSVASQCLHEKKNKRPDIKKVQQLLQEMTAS
Assay: biochemical

[1] = IRAK4 Biochemical Assay (1 mM ATP, 2 h) IC50 (μM), 1 mM ATP, 2 h, 100 pM IRAK4

Compound | IC50 | IC50 [1]
COc1ncccc1NC(=O)c1cn2cc(C34CC(C#N)(C3)C4)nc2cc1OC(C)C [Example 403, 2-(3-Cyanobicyclo[1.1.1]pentan-1-yl)-7-isopropoxy-N-(2-methoxypyridin-3-yl)imidazo[1,2-a]pyridine-6-carboxamide] | 0.0008 µM | –
COc1cc2nc(C34COC(C)(C3)C4)cn2cc1C(=O)Nc1cccc(C(F)F)n1 [Example 293, N-(6-(difluoromethyl)pyridin-2-yl)-7-methoxy-2-(1-methyl-2-oxabicyclo[2.1.1]hexan-4-yl)imidazo[1,2-a]pyridine-6-carboxamide] | 0.0028 µM | –
Cc1cnc2c(NC(=O)c3cn4cc(C56COC(C)(C5)C6)nc4cc3O[C@H](C)C3CC3)cnn2c1 (single isomer, unassigned) [Example 657] | 0.0009 µM | –
COc1cc2nc(C3CCOCC3)cn2cc1C(=O)Nc1cscc1Cl [Example 111] | 0.0198 µM | –
O=C(Nc1cccc(C(F)F)n1)c1cn2cc(C3CC3)nc2cc1OC1CCOC1 (stereo not shown) [Example 468, 2-Cyclopropyl-N-(6-(difluoromethyl)pyridin-2-yl)-7-((tetrahydrofuran-3-yl)oxy)imidazo[1,2-a]pyridine-6-carboxamide] | 0.007 µM | –
C[C@@H](Oc1cc2nc(C34COC(C)(C3)C4)cn2cc1C(=O)Nc1cccc(C(F)F)n1)C1CC1 (single isomer, unassigned) [Example 655] | 0.0004 µM | –
CC(C)Oc1c(C(=O)Nc2cccn(C)c2=O)cn2cc(C34COC(C)(C3)C4)nc2c1Cl [Example 255, 8-Chloro-7-isopropoxy-N-(1-methyl-2-oxo-1,2-dihydropyridin-3-yl)-2-(1-methyl-2-oxabicyclo[2.1.1]hexan-4-yl)imidazo[1,2-a]pyridine-6-carboxamide] | 0.158 µM | –
CCOc1nc(C(=O)Nc2cnn3cc(C)cnc23)cn2cc(C34COC(C)(C3)C4)nc12 [Example 498, 8-Ethoxy-2-(1-methyl-2-oxabicyclo[2.1.1]hexan-4-yl)-N-(6-methylpyrazolo[1,5-a]pyrimidin-3-yl)imidazo[1,2-a]pyrazine-6-carboxamide] | 0.0043 µM | –
CCOc1cc2nc([C@H]3C[C@H]3F)cn2cc1C(=O)Nc1cccc(OC)n1 [Example 79] | 0.0126 µM | –
CC(C)Oc1nc2nc(C34COC(C3)C4)cn2cc1C(=O)Nc1cnn2cccnc12 [Example 430, 2-(2-Oxabicyclo[2.1.1]hexan-4-yl)-7-isopropoxy-N-(pyrazolo[1,5-a]pyrimidin-3-yl)imidazo[1,2-a]pyrimidine-6-carboxamide] | 0.0027 µM | –
CCn1ccc(NC(=O)c2cn3cc(C45CCC(C)(C4)OC5)nc3cc2OC(C)C)n1 (stereo not shown) [Example 508, N-(1-ethyl-1H-pyrazol-3-yl)-7-isopropoxy-2-(1-methyl-2-oxabicyclo[2.2.1]heptan-4-yl)imidazo[1,2-a]pyridine-6-carboxamide] | 0.0023 µM | –
CC(C)Oc1nc2nc(C34CCC(C)(CC3)OC4)cn2cc1C(=O)Nc1cc(F)n(C)n1 [Example 382, N-(5-fluoro-1-methyl-1H-pyrazol-3-yl)-7-isopropoxy-2-(1-methyl-2-oxabicyclo[2.2.2]octan-4-yl)imidazo[1,2-a]pyrimidine-6-carboxamide] | 0.0046 µM | –
COc1cccc(NC(=O)c2cn3cc(C45COC(C)(C4)C5)nc3c(F)c2OC(C)C)n1 [Example 548, 8-Fluoro-7-isopropoxy-N-(6-methoxypyridin-2-yl)-2-(1-methyl-2-oxabicyclo[2.1.1]hexan-4-yl)imidazo[1,2-a]pyridine-6-carboxamide trifluoroacetate] | – | 0.0082 µM
COc1cc2nc(C3CCOCC3)cn2cc1C(=O)Nc1cccn2nccc12 [Example 479, 7-Methoxy-N-(pyrazolo[1,5-a]pyridin-4-yl)-2-(tetrahydro-2H-pyran-4-yl)imidazo[1,2-a]pyridine-6-carboxamide] | 0.0092 µM | –
CC12CC(c3cn4cc(C(=O)Nc5cccn(C(F)F)c5=O)c(OC5CC(C(F)F)C5)cc4n3)(CO1)C2 (stereo not shown) [Example 450, N-(1-(difluoromethyl)-2-oxo-1,2-dihydropyridin-3-yl)-7-(3-(difluoromethyl)cyclobutoxy)-2-(1-methyl-2-oxabicyclo[2.1.1]hexan-4-yl)imidazo[1,2-a]pyridine-6-carboxamide] | – | 0.0003 µM
Cn1ccc(NC(=O)c2cn3cc([C@@]45CC[C@@](C)(C4)OC5)nc3cc2OC2CCCC2)n1 (single isomer, unassigned) [Example 634] | 0.0023 µM | –
CCOc1cc2nc(C3CCOCC3)cn2cc1C(=O)Nc1cccc(C2CCOC2)n1 (stereo not shown) [Example 391, 7-Ethoxy-2-(tetrahydro-2H-pyran-4-yl)-N-(6-(tetrahydrofuran-3-yl)pyridin-2-yl)imidazo[1,2-a]pyridine-6-carboxamide hydrochloride] | – | 0.0034 µM

Compound | IC50 | IC50 [1]
CC(C)Oc1cc2nc(C34CCC(C)(C3)OC4)cn2cc1C(=O)Nc1ccn(C(F)F)n1 (stereo not shown) [Example 504, N-(1-(difluoromethyl)-1H-pyrazol-3-yl)-7-isopropoxy-2-(1-methyl-2-oxabicyclo[2.2.1]heptan-4-yl)imidazo[1,2-a]pyridine-6-carboxamide] | – | 0.0018 µM
CC(C)Oc1nc2nc(C34COC(CF)(C3)C4)cn2cc1C(=O)Nc1cccc(C(F)F)n1 [Example 564, N-(6-(difluoromethyl)pyridin-2-yl)-2-(1-(fluoromethyl)-2-oxabicyclo[2.1.1]hexan-4-yl)-7-isopropoxyimidazo[1,2-a]pyrimidine-6-carboxamide] | 0.0003 µM | –
COc1cccc(NC(=O)c2cn3cc(C4C5COCC54)nc3cc2OC(C)C)n1 (stereo not shown) [Example 254, 2-(3-Oxabicyclo[3.1.0]hexan-6-yl)-7-isopropoxy-N-(6-methoxypyridin-2-yl)imidazo[1,2-a]pyridine-6-carboxamide] | 0.001 µM | –
CC(C)Oc1cc2nc([C@@]34CC[C@@](C)(C3)OC4)cn2cc1C(=O)Nc1ccn(C)n1 (single isomer, unassigned) [Example 606] | 0.0023 µM | –
CC(C)Oc1cc2nc(C3COCCO3)cn2cc1C(=O)Nc1cccc(C(F)F)n1 (stereo not shown) [Example 330, N-(6-(difluoromethyl)pyridin-2-yl)-2-(1,4-dioxan-2-yl)-7-isopropoxy-imidazo[1,2-a]pyridine-6-carboxamide] | 0.0002 µM | –
CC12CCC(c3cn4cc(C(=O)Nc5cccnc5OC(F)F)c(OC5CCC5)cc4n3)(CO1)C2 (stereo not shown) [Example 536, 7-Cyclobutoxy-N-(2-(difluoromethoxy)pyridin-3-yl)-2-(1-methyl-2-oxabicyclo[2.2.1]heptan-4-yl)imidazo[1,2-a]pyridine-6-carboxamide] | 0.0016 µM | –
COCc1nc2nc(C34COC(C)(C3)C4)cn2cc1C(=O)Nc1cnn2cc(C)cnc12 [Example 352, 7-(Methoxymethyl)-2-(1-methyl-2-oxabicyclo[2.1.1]hexan-4-yl)-N-(6-methylpyrazolo[1,5-a]pyrimidin-3-yl)imidazo[1,2-a]pyrimidine-6-carboxamide] | 6.53 µM | –
CC(C)Oc1nc2nc(C34COC(C)(C3)C4)cn2cc1C(=O)Nc1ccn2nccc2n1 [Example 372, 7-Isopropoxy-2-(1-methyl-2-oxabicyclo[2.1.1]hexan-4-yl)-N-(pyrazolo[1,5-a]pyrimidin-5-yl)imidazo[1,2-a]pyrimidine-6-carboxamide] | 0.0576 µM | –
CC12CC(c3cn4cc(C(=O)Nc5cccn(C(F)F)c5=O)c(OC5CC(F)(F)C5)cc4n3)(CO1)C2 [Example 455, 7-(3,3-Difluorocyclobutoxy)-N-(1-(difluoromethyl)-2-oxo-1,2-dihydropyridin-3-yl)-2-(1-methyl-2-oxabicyclo[2.1.1]hexan-4-yl)imidazo[1,2-a]pyridine-6-carboxamide] | 0.0012 µM | –
CC(C)Oc1cc2nc(C34CCC(C3)OC4)cn2cc1C(=O)Nc1cccc(C(F)F)n1 (stereo not shown) [Example 246] | 0.0002 µM | –
CCOc1nc(C(=O)Nc2cccnc2OC)cn2cc(C34COC(C)(C3)C4)nc12 [Example 225] | 0.0052 µM | –
Cc1cnc2c(NC(=O)c3cn4cc(C56COC(C)(C5)C6)nc4cc3OC3CCCC3)cnn2c1 [Example 568, 7-(Cyclopentyloxy)-2-(1-methyl-2-oxabicyclo[2.1.1]hexan-4-yl)-N-(6-methylpyrazolo[1,5-a]pyrimidin-3-yl)imidazo[1,2-a]pyridine-6-carboxamide] | 0.0002 µM | –
CC(C)Oc1cc2nc(C34CCC(C)(C3)OC4)cn2cc1C(=O)Nc1ccn(C(F)(F)F)n1 (stereo not shown) [Example 506, 7-Isopropoxy-2-(1-methyl-2-oxabicyclo[2.2.1]heptan-4-yl)-N-(1-(trifluoromethyl)-1H-pyrazol-3-yl)imidazo[1,2-a]pyridine-6-carboxamide] | 0.0038 µM | –
CC12CC(c3cn4cc(C(=O)Nc5ccn(C(F)(F)F)n5)c(OC5CCC5)cc4n3)(CO1)C2 [Example 521, 7-Cyclobutoxy-2-(1-methyl-2-oxabicyclo[2.1.1]hexan-4-yl)-N-(1-(trifluoromethyl)-1H-pyrazol-3-yl)imidazo[1,2-a]pyridine-6-carboxamide] | 0.0118 µM | –
CCc1ncsc1NC(=O)c1cn2cc(C34CCC(C)(C3)OC4)nc2cc1OC(C)C (stereo not shown) [Example 511, N-(4-ethylthiazol-5-yl)-7-isopropoxy-2-(1-methyl-2-oxabicyclo[2.2.1]heptan-4-yl)imidazo[1,2-a]pyridine-6-carboxamide] | 0.0042 µM | –
CCn1ccc(NC(=O)c2cn3cc(C45COC(C)(C4)C5)nc3cc2OC2CCC2)n1 [Example 528, 7-Cyclobutoxy-N-(1-ethyl-1H-pyrazol-3-yl)-2-(1-methyl-2-oxabicyclo[2.1.1]hexan-4-yl)imidazo[1,2-a]pyridine-6-carboxamide] | 0.0052 µM | –
C[C@@]12CC[C@@](c3cn4cc(C(=O)Nc5ccccn5)nc(OC5CCC5)c4n3)(CO1)C2 (single isomer, unassigned) [Example 622] | – | 0.004 µM

Source: US20230087118A1, “IMIDAZO[1,2-a][sequence] DERIVATIVES AND THEIR USE IN THE TREATMENT OF DISEASE” (priority 2019, published 2023)
